Test results published in PMC8284454, “In Vitro Profiling of Antitubercular Compounds by Rapid, Efficient, and Nondestructive Assays Using Autoluminescent Mycobacterium tuberculosis” (Antimicrobial Agents and Chemotherapy, 2021).
In brackets after ≈: the same amount, converted by molar mass. Like-named read-outs stand apart in the source and are kept apart here. Marks after values point to notes of the source that are not given here.

Legend:
[1] = test system: J774-internalized M. tuberculosis (H37Rv); experiment: intracellular activity by luminescence (EC90); format: cell-based, Mycobacterium tuberculosis; conditions: for EC90: RLU; for onset of growth inhibition of internalized M. tuberculosis: early = EC90 obtainable by day 3, late = EC90 obtainable by day 5 or later
[2] = test system: M. tuberculosis H37Rv_LuxABCDE; format: cell-based, Mycobacterium tuberculosis; conditions: 1:10,000-fold dilution; for PAE 10× MIC CFU/ml: 3 h exposure at 10× MIC; for PAE 100× MIC CFU/ml: 3 h exposure at 100× MIC
[3] = test system: macrophage-internalized M. tuberculosis; conditions: EC90, high-content imaging on day 5; read-out: Literature reported EC90; cited from earlier work
[4] = test system: M. tuberculosis H37Rv_LuxABCDE; experiment: microplate alamarBlue assay (MABA) MIC; conditions: 90% reduction of fluorescence, 7 days, 7H12 medium; SD from three independent experiments
[5] = test system: M. tuberculosis H37Rv_LuxABCDE; experiment: postantibiotic effect by luminescence (RLU); format: cell-based, Mycobacterium tuberculosis; conditions: 1.5 log10 RLU increase, 1:10,000-fold dilution; for PAE 10× MIC RLU: 3 h exposure at 10× MIC; for PAE 100× MIC RLU: 3 h exposure at 100× MIC
[6] = test system: M. tuberculosis H37Rv_LuxABCDE; experiment: MIC used to set PAE concentrations (Table 4); format: cell-based; conditions: Mycobacterium tuberculosis
Source text: TABLE 4 Comparison of post antibiotic effect values (h) obtained via CFU and RLU measurement for two established TB drugs (rifampin and isoniazid) and two emerging TB lead candidates (ecumicin and rufomycin)^a | column: MIC (μM)

[7] = test system: M. tuberculosis H37Rv_LuxABCDE; experiment: microbe, parasite or virus in culture; format: cell-based, Mycobacterium tuberculosis; conditions: Mycobacterium tuberculosis, day 7, SD from three independent experiments, read-out: MBC (±SD) via CFU
[8] = test system: M. tuberculosis H37Rv_LuxABCDE; experiment: luminescence-based MBC assay (LMBCA) / time-kill; format: cell-based, Mycobacterium tuberculosis; conditions: for MBC: Mycobacterium tuberculosis, 99% reduction in RLU vs T0; for change of MBC values over time: over 21 days, luminescence time-kill; for time and/or concentration dependence of bactericidal activity: time-kill curves up to day 21
[9] = test system: M. tuberculosis H37Rv_LuxABCDE; experiment: luminescence-based MIC assay (LMICA); conditions: 90% reduction of luminescence, 7 days, 7H12 medium; SD from three independent experiments
[10] = Mycobacterium tuberculosis, H37RV, 72 h, EC90, day 3, J774 macrophages, read-out: Intracellular activity, EC90 (±SD) Day 3
[11] = Mycobacterium tuberculosis, H37RV, 120 h, EC90, day 5, J774 macrophages, read-out: Intracellular activity, EC90 (±SD) Day 5
[12] = Mycobacterium tuberculosis, H37RV, 168 h, EC90, day 7, J774 macrophages, read-out: Intracellular activity, EC90 (±SD) Day 7
[13] = 168 h, day 7, SD from three independent experiments, read-out: MBC (±SD) via luminescence
[14] = 336 h, day 14, read-out: MBC (±SD) by luminescence on day 14
[15] = 504 h, day 21, read-out: MBC (±SD) by luminescence on day 21

| SMILES | EC90 [1, 10] [nM] | EC90 [1, 11] [nM] | EC90 [1, 12] [nM] | onset of growth inhibition of internalized M. tuberculosis [1] | PAE 10× MIC CFU/ml [2] [h] | PAE 100× MIC CFU/ml [2] [h] | EC90 [3] [nM] | MIC (±SD) MABA [4] | PAE 10× MIC RLU [5] [h] | PAE 100× MIC RLU [5] [h] | MIC [6] [µM] | MBC [7] [µM] | MBC [8, 13] [µM] | MBC [8, 14] [µM] | MBC [8, 15] [µM] | change of MBC values over time [8] | time and/or concentration dependence of bactericidal activity [8] | MIC (±SD) LMICA [9] | other results |
| --- | --- | --- | --- | --- | --- | --- | --- | --- | --- | --- | --- | --- | --- | --- | --- | --- | --- | --- | --- |
| NNC(=O)c1ccncc1 [Isoniazid] | > 8000 | 1050 | 520 | late growth inhibition | 0 | 0 | 1200 | 0.30 (0.05) μM | 0 | 0 | 0.3 (≈ 0.0411 µg/mL) | 0.46 (≈ 0.0631 µg/mL) | 0.57 (≈ 0.0782 µg/mL) | 2.56 (≈ 0.351 µg/mL) | 3.23 (≈ 0.443 µg/mL) | increase | mainly time dependent | 0.24 (0.08) μM | inhibition at 8 µM ([1]; Mycobacterium tuberculosis, H37RV, 72 h, day 3, 8 μM, read-out: percent inhibition at the highest tested concentration, intracellular activity Day 3): 77%; PAE 1× MIC CFU/ml ([2]; 3 h exposure at 1× MIC): 0 h; PAE 100× MIC CFU/ml ([2]; listed as isoniazid): no observable PAE; Toxicity against infected J774, percent inhibition at the highest tested concentration (infected J774; day 7, 8 μM): 8 (0)* percent; PAE 1× MIC RLU ([5]; 3 h exposure at 1× MIC): 0 h; PAE 100× MIC RLU ([5]; listed as isoniazid): no observable PAE |
| CO[C@H]1/C=C/O[C@@]2(C)Oc3c(C)c(O)c4c(O)c(c(/C=N/N5CCN(C)CC5)c(O)c4c3C2=O)NC(=O)/C(C)=C\C=C\[C@H](C)[C@H](O)[C@@H](C)[C@@H](O)[C@@H](C)[C@H](OC(C)=O)[C@@H]1C [Rifampin] | > 2000 | 1550 | 640 | late growth inhibition | 30 | 58 | 2900 | 0.060 (0.01) μM | 26 | 92 | 0.04 (≈ 0.0329 µg/mL) | 0.4 (≈ 0.329 µg/mL) | 0.6 (≈ 0.494 µg/mL) | 0.48 (≈ 0.395 µg/mL) | 0.4 (≈ 0.329 µg/mL) | decreased | both time and concentration dependent | 0.041 (0.005) μM | inhibition at 2 µM ([1]; Mycobacterium tuberculosis, H37RV, 72 h, day 3, 2 μM, read-out: percent inhibition at the highest tested concentration, intracellular activity Day 3): 60%; Toxicity against infected J774, percent inhibition at the highest tested concentration (infected J774; day 7, 2 μM): 2 (0)* percent |
